Measurements published in paper PMC1435945, “Prediction of indirect interactions in proteins” (BMC Bioinformatics, 2006).
Marks after values point to notes of the source that are not given here. Where a SMILES comes first, the peptide text is derived from it. [ ]: non-standard residue; d: D form. Tyr(3-I) = N[C@@H](Cc1ccc(O)c(I)c1)C(=O)O; Nle = CCCC[C@H](N)C(=O)O

What was measured:
[1] = biological target: F451 multiple chimeric melanocortin receptor; assay: Radioligand binding saturation, chimera F451; conditions: COS-1, F451, F-set, parts A/B/C MC4/MC5/MC1, pK ± SD
[2] = biological target: F413 multiple chimeric melanocortin receptor; assay: Radioligand binding saturation, chimera F413; conditions: COS-1, F413, F-set, parts A/B/C MC4/MC1/MC3, pK ± SD
[3] = biological target: F354 multiple chimeric melanocortin receptor; assay: Radioligand binding saturation, chimera F354; conditions: COS-1, F354, F-set, parts A/B/C MC3/MC5/MC4, pK ± SD
[4] = biological target: F514 multiple chimeric melanocortin receptor; assay: Radioligand binding saturation, chimera F514; conditions: COS-1, F514, F-set, parts A/B/C MC5/MC1/MC4, pK ± SD
[5] = biological target: S531 multiple chimeric melanocortin receptor; assay: Radioligand binding saturation, chimera S531; conditions: COS-1, S531, S-set, parts A/B/C MC5/MC3/MC1, pK ± SD
[6] = biological target: S134 multiple chimeric melanocortin receptor; assay: Radioligand binding saturation, chimera S134; conditions: COS-1, S134, S-set, parts A/B/C MC1/MC3/MC4, pK ± SD
[7] = biological target: MC5 receptor; conditions: saturation; MC5 wt.; ref [31]; cited from earlier work
Source text: (§1) Table 1 Affinities of multiple chimeric melanocortin receptors.

[8] = biological target: MC4 receptor; conditions: saturation; MC4 wt.; ref [31]; cited from earlier work
Source text: as §1

[9] = biological target: MC1 receptor; conditions: saturation; MC1 wt.; ref [31]; cited from earlier work
Source text: as §1

[10] = biological target: MC3 receptor; conditions: saturation; MC3 wt.; ref [31]; cited from earlier work
Source text: as §1

## CCCC[C@H](NC(=O)[C@H](CO)NC(=O)[C@H](Cc1ccc(O)c(I)c1)NC(=O)[C@H](CO)NC(C)=O)C(=O)NCC(=O)N[C@@H](Cc1c[nH]cn1)C(=O)N[C@H](Cc1ccccc1)C(=O)N[C@@H](CCCNC(=N)N)C(=O)N[C@@H](Cc1c[nH]c2ccccc12)C(=O)NCC(=O)N[C@@H](CCCCN)C(=O)N1CCC[C@H]1C(=O)N[C@H](C(N)=O)C(C)C [^125I-NDP-MSH, [^125I-Tyr^2, Nle^4, D-Phe^7]-α-MSH] (Ac-S[Tyr(3-I)]S[Nle]GH[dF]RWGKPV-NH2)
[1]
  pK (Kd): 9.06 ± 0.31
[2]
  pK (Kd): 8.62 ± 0.16
[3]
  pK (Kd): 8.80 ± 0.16
[4]
  pK (Kd): 9.19 ± 0.21
[5]
  pK (Kd): 8.96 ± 0.35
[6]
  pK (Kd): 9.30 ± 0.26
[7]
  pK (Kd): 8.54^a
[8]
  pK (Kd): 8.64^a
[9]
  pK (Kd): 9.96^a
[10]
  pK (Kd): 9.40^a
